Measured values taken from patent publication US10226501B2, “Method of orally administering a date fruit extract to treat breast cancer” (King Abdulaziz University, priority 2017, dated 2019).

System: female Wistar rats having DMBA-induced breast cancer
Experiment: Serum antioxidant enzyme activities in rats with DMBA-induced breast cancer
Format: in vivo, rat
Conditions: oral, daily for three months, ADE 1 or 0.5 g/kg b.w., melatonin 2.5 mM
Description: This is an in vivo experiment showing the improvement of Ajwa Date Extract (ADE) on the antioxidant system in rats having breast cancer induced by 7,12-Dimethylbenz[a]anthracene (DMBA).
The experiment of DMBA-induced breast cancer in female Wistar rats was comprised of six different treatment groups: the untreated controls (administered normal diet), DMBA-treated, DMBA-treated and orally administered 1 g/kg b.w. (body weight) of ADE, DMBA-treated and orally administered 0.5 g/kg b.w. of ADE, DMBA-treated and administered orally 2.5 mM melatonin, and DMBA-treated and administered 2.5 mM melatonin plus 1 g/kg b.w. of ADE. All six groups were treated daily for three months. On sacrification day, samples of blood were collected with the serum being separated and stored at −80° C.
The collected sera were analyzed for four mean activities namely, of superoxide dismutase (SOD) catalase, glutathione reductase (GR), and glutathione peroxidase (GPx). The means of the four activities in sera of the six treatment groups are illustrated in FIGS. 4-7. The mean serum SOD (FIG. 4), catalase (FIG. 5), GR (FIG. 6), and GPx (FIG. 7) in DMBA and ADE and/or melatonin administered rats was higher than that of the DMBA administered rats that were deprived of the ADE and/or melatonin.

COc1ccc2[nH]cc(CCNC(C)=O)c2c1 [melatonin]
higher: mean serum SOD activity (compared with DMBA-only rats (FIG. 4)) | mean serum catalase activity (compared with DMBA-only rats (FIG. 5)) | mean serum GR activity (compared with DMBA-only rats (FIG. 6)) | mean serum GPx activity (compared with DMBA-only rats (FIG. 7))
